Results reported in patent publication US4089974A, “5-Carboxy-phenylenebis(carbonylimino)benzene carboxylic and dicarboxylic acids and salts” (American Cyanamid Company, priority 1977, dated 1978).
Structures can show the parent of a compound that is named as a salt.

How the values were obtained:
[1] = system: human C1; experiment: Test, Code 026 (C1 inhibitor); format: biochemical
Source text: An active inhibitor protects C2 from C1 and C4; (ii) Test, Code 035 (C3-C9 inhibitor) -- This test determines the ability of the late components of human complement (C3-C9) to lyse EAC 142 in the presence of appropriate dilutions of the test compound. An active inhibitor protects EAC 142 from lysis by human C3-C9; (iii) Test, Code 036 (C-Shunt inhibitor) -- In this test human erythrocytes rendered fragile are lysed in autologous serum via the shunt pathway activated by cobra venom factor in the presence of appropriate dilutions of the test compound. Inhibition of the shunt pathway results in failure of lysis; (iv) Forssman Vasculitis Test -- Here, the well known complement dependent lesion, Forssman vasculitis, is produced in guinea pigs by intradermal injection of rabbit anti-Forssman antiserum. […]

[2] = system: Citrated sheep plasma (CSP); experiment: in vitro anti-coagulant activity (AC), citrated sheep plasma clotting; format: biochemical
Experimental: The sheep RBC's, kept in suspension throughout the clotting incubation time, become enmeshed in the fibrin matrix if a clots forms. Upon centrifugation of the plate, untrapped RBC's form buttons, the sizes of which correspond to the degree of clot inhibition; this providing a measure of anti-coagulant activity (AC). Sodium heparin is used as a positive control and activity is reported in wells appearing in Table I.

[3] = Intrinsic Therapeutic Index (Code 026 versus AC); conditions: Table II
Source text: The computation of an Intrinsic Therapeutic Index (ITI) was devised to correlate the results, expressed in wells, obtained in the in vitro Code 026 (C1 inhibitor) test and the in vitro anti-coagulant (AC) test into a meaningful value which would aid in the net evaluation of the activity of the compounds of this invention.
The ITI of a given compound may be defined as the antilogarithm of the logarithmic (base 2) difference between the highest serial dilution in wells which is active in the Code 026 test and the highest serial dilution in wells providing activity in the anti-coagulant test. The ITI is thus a measure of the separation of anti-complement and anti-coagulant activities; the higher the numerical value the more therapeutically useful the separation of activities.

[4] = system: complement system; conditions: cited from earlier work; for anticomplementary effect: British Journal of Experimental Pathology, 33, 327-339 (1952)
[5] = system: hereditary angioneurotic edema; conditions: The New England Journal of Medicine, 286, 808-812 (1972); cited from earlier work

## O=C([O-])c1cc(C(=O)Nc2ccc(C(=O)[O-])c(C(=O)[O-])c2)cc(C(=O)Nc2ccc(C(=O)[O-])c(C(=O)[O-])c2)c1.[Na+].[Na+].[Na+].[Na+].[Na+] [4,4'-[5-Carboxy-1,3-phenylenebis(carbonylimino)]-diphthalic acid pentasodium salt]
[1]; Table I, two-fold serial dilution assay, higher well number indicates higher activity
  C1 026 Wells: +2 Wells
[1]; Table II, in vitro
  Complement Inhibiting Activity (Wells) Code 026: +2 Wells
[2]; Table I, two-fold serial dilution assay, sodium heparin positive control
  AC Wells: ≤ -2 Wells
[2]; Table II, in vitro
  Anti-Coagulant Activity (Wells) AC: -2 Wells
[3]; antilogarithm of the logarithmic (base 2) difference
  Intrinsic Therapeutic Index: 16
[3]; log base 2 difference, Code 026 minus AC
  Logarithmic Difference Expressed as Wells: +4 Wells

## Cc1ccc(C(=O)Nc2ccc(S(=O)(=O)O)c3cc(S(=O)(=O)O)cc(S(=O)(=O)O)c23)cc1NC(=O)c1cccc(NC(=O)Nc2cccc(C(=O)Nc3cc(C(=O)Nc4ccc(S(=O)(=O)O)c5cc(S(=O)(=O)O)cc(S(=O)(=O)O)c45)ccc3C)c2)c1 [Suramin, 8-(3-benzamido-4-methylbenzamido)naphthalene-1, -3,5-trisulfonic acid]
[4]; Clin. Exp. Immunol., 10, 127-138 (1972)
  inhibition of the complement system: competitive inhibitor of the complement system
[5]
  treatment of hereditary angioneurotic edema: used with success

## heparin
[4]
  anticomplementary effect: reported to have an anticomplementary effect

## Nc1ccc2cc(S(=O)(=O)O)cc(O)c2c1N=Nc1ccc(NC(=O)Nc2ccc(N=Nc3c(N)ccc4cc(S(=O)(=O)O)cc(O)c34)c(S(=O)(=O)O)c2)cc1S(=O)(=O)O [chlorazol fast pink, 3,3'-ureylenebis-[6-(2-amino-8-hydroxy-6-sulfo-1-naphthylazo)]benzenesulfonic acid, tetrasodium salt]
[4]
  anticomplementary effect: reported to have an anticomplementary effect

## NC[C@H]1CC[C@H](C(=O)O)CC1 [tranexamic acid]
[5]
  treatment of hereditary angioneurotic edema: used with success

## NCCCCCC(=O)O [epsilon-aminocaproic acid]
[5]
  treatment of hereditary angioneurotic edema: used with success
